Assay results reported in publication PMC12040169 (PLOS Biology, 2025).

What was measured:
[1] = test system: T1, C. trachomatis L2/434/Bu expressing GFP (CTL2-GFP); test: microbe, parasite or virus in culture; design: C. trachomatis total inclusion area by high-content imaging, normalised to DMSO; settings: Chlamydia trachomatis, HeLa, 28.5 h; total inclusion area; read-out: % of control remaining
T1 construct: L2/434/Bu GFP intracellular growth in HeLa cells
From the text: We screened a library of 36,785 small molecules displaying drug-like properties and covering a wide chemical space (Fig 1A and S2A Data). In this process, we also complemented the assay described above with an imaging-based readout (Fig 1B). After measurements of bulk GFP and resorufin fluorescence, cells were fixed, stained with the DNA dye Hoechst, and imaged at a high-content imaging platform to detect chlamydial inclusions (GFP) and host cell nuclei (Hoechst). The total area and number of inclusions in individual wells and the number of nuclei then served as additional proxies for chlamydial growth and host cell viability. […] MICs were calculated as described above.

[2] = test system: T2, CTL2-GFP (C. trachomatis L2/434/Bu, GFP-expressing); test: microbe, parasite or virus in culture; design: Intracellular C. trachomatis growth in HeLa cells, bulk GFP fluorescence relative to DMSO; settings: Chlamydia trachomatis, HeLa, 28.5 h; bulk GFP, mean of 2; read-out: % of control remaining
T2 construct: L2/434/Bu, GFP-expressing
Experimental: MICs were calculated as described above.

in vitro = test: in vitro; design: Viability of infected HeLa host cells, resazurin conversion, bulk resorufin fluorescence relative to DMSO; settings: human, hela cells; bulk resorufin, mean of 2

Row | SMILES | activity at 1 µM [1] | activity at 5 µM [1] | activity at 10 µM [1] | activity at 1 µM [2] | activity at 5 µM [2] | activity at 10 µM [2] | viability at 28.5 h, 1 µM (in vitro) | viability at 28.5 h, 5 µM (in vitro) | viability at 28.5 h, 10 µM (in vitro)
1 | N#CC(CCCN1CCN(c2ccccc2)CC1)(c1ccccc1)c1ccccc1 [CBK002243C] | 42.5% | 23.5% | 17.3% | 106% | 74% | 41.5% | 99.6% | 105% | 118%
2 | COc1cccc(CNC(C(=O)O)c2ccc3c(c2)OCO3)c1 (stereo not drawn) [CBK015420D] | 103% | 49.9% | 20.3% | 107% | 30.9% | 12.5% | 92.7% | 92.5% | 87.4%
3 | CC(=O)N1CCc2sccc2C1c1ccccc1NCc1ccoc1 (stereo not drawn) [CBK286432] | 61.5% | 24.5% | 22.5% | 87.1% | 34% | 26.3% | 85% | 86.8% | 85.9%
4 | c1ccc(Oc2cccc(OCCCN3CCCCC3)c2)cc1 [CBK261781] | 122% | 69.2% | 23.4% | 131% | 133% | 74.4% | 103% | 97% | 101%
5 | CCCCc1ccc(NC(=N)Nc2nc(C)cc(C)n2)cc1 [CBK262967] | 75.4% | 38.5% | 9.61% | 89.4% | 33.4% | 22% | 90.3% | 95.4% | 90%
6 | c1ccc(-c2nc3cc4ccccc4cc3[nH]2)nc1 [CBK000130] | 98.2% | 31.5% | 14.1% | 133% | 40.2% | 18.3% | 99.1% | 95.7% | 90.5%
7 | C[C@H](NC(=O)Cc1ccc(-c2ccccc2)cc1)c1nc2ccccc2[nH]1 [CBK296998] | 110% | 35.8% | 30.7% | 153% | 142% | 185% | 89.7% | 97.4% | 100%
8 | Cc1ccc(Nc2ncc(C(=O)NCCCN3CCN(c4cccc(Cl)c4)CC3)c3ccccc23)cc1Cl [CBK291251] | 93.1% | 97.7% | 75.8% | 89.3% | 83.3% | 70.2% | 106% | 113% | 99.2%
9 | CCCCCC(=O)Nc1ccc(S(=O)(=O)Nc2nnc(CC)s2)cc1 [CBK045478] | 122% | 53% | 48.9% | 137% | 47.1% | 29.6% | 94.8% | 93.6% | 91.2%
10 | COc1ccc(Br)cc1C1CC(=O)Nc2c(-c3cccc(F)c3)csc21 (stereo not drawn) [CBK294442] | 118% | 29.4% | 66.4% | 132% | 65.3% | 59.3% | 96.8% | 96.5% | 95.7%
11 | COc1cc(/C=N/c2cccc3c(/N=C/c4ccc(O)c(OC)c4)cccc23)ccc1O [CBK261224] | 114% | 68% | 40.8% | 120% | 67.3% | 44% | 89.7% | 86.7% | 81.8%
